{"source": "patent US6846810B2", "about": "“Antiviral nucleoside derivatives” (Roche Palo Alto LLC, priority 2002, dated 2005)", "key": {"[1]": {"system": "HCV replicon RNA (Renilla luciferase HCV replicon cells 2209-23)", "assay": "Renilla luciferase assay (HCV replicon)", "format": "cell-based, Hepatitis C virus", "settings": "Huh-7, 72 h; 2209-23 replicon cells (human hepatoma Huh7), three days incubation, 50% reduction of replicon level"}}, "data": [{"compound": "CCCCOC(=O)Nc1ccn([C@@H]2O[C@@](CO)(N=[N+]=[N-])[C@@H](O)[C@H]2O)c(=O)n1", "values": [{"measurement": "melting point", "value": "86.5 to 94", "unit": "°C"}]}, {"compound": "CCC(=O)OC[C@@]1(N=[N+]=[N-])O[C@@H](n2ccc(N)nc2=O)[C@H](OC(=O)CC)[C@@H]1OC(=O)CC", "values": [{"measurement": "melting point", "value": "75.9 to 79.9", "unit": "°C"}]}, {"compound": "CCCCCCCCOC(=O)OC[C@@]1(N=[N+]=[N-])O[C@H](n2ccc(N)nc2=O)[C@H](O)[C@@H]1O.O=C(O)C(F)(F)F", "values": [{"measurement": "melting point", "value": "70.5 to 81", "unit": "°C"}]}, {"compound": "CCCC(=O)O[C@H]1[C@@H](n2ccc(N)nc2=O)O[C@@](CO)(N=[N+]=[N-])[C@H]1OC(=O)CCC.O=C(O)C(F)(F)F", "values": [{"measurement": "melting point", "value": "91 to 94.9", "unit": "°C"}]}, {"compound": "CCCCCCCOC(=O)OC[C@@]1(N=[N+]=[N-])O[C@H](n2ccc(N)nc2=O)[C@H](O)[C@@H]1O.O=C(O)C(F)(F)F", "values": [{"measurement": "melting point", "value": "90.9 to 94.6", "unit": "°C"}]}, {"compound": "CCC(=O)OC[C@@]1(N=[N+]=[N-])O[C@H](n2ccc(N)nc2=O)[C@H](OC(=O)CC)[C@@H]1OC(=O)CC.Cl", "values": [{"measurement": "melting point", "value": "72 to 75.2", "unit": "°C"}]}, {"compound": "CC(=O)Nc1ccn([C@@H]2O[C@@](COC(C)=O)(N=[N+]=[N-])[C@@H](OC(C)=O)[C@H]2OC(C)=O)c(=O)n1", "values": [{"measurement": "melting point", "value": "77 to 80.1", "unit": "°C"}]}, {"compound": "CCCC(=O)OC[C@@]1(N=[N+]=[N-])O[C@H](n2ccc(N)nc2=O)[C@H](OC(=O)CCC)[C@@H]1OC(=O)CCC.Cl", "values": [{"measurement": "melting point", "value": "167.5 to 170.6", "unit": "°C"}]}, {"compound": "CCCCC(=O)O[C@H]1[C@@H](n2ccc(N)nc2=O)O[C@@](CO)(N=[N+]=[N-])[C@H]1OC(=O)CCCC.Cl", "values": [{"measurement": "melting point", "value": "124.3 to 128.4", "unit": "°C"}]}, {"compound": "CCCCCCOC(=O)Nc1ccn([C@H]2O[C@@](CO)(N=[N+]=[N-])[C@@H](O)[C@H]2O)c(=O)n1", "values": [{"measurement": "melting point", "value": "134.4 to 136", "unit": "°C"}]}, {"compound": "CCCCCCOC(=O)OC[C@@]1(N=[N+]=[N-])O[C@H](n2ccc(N)nc2=O)[C@H](O)[C@@H]1O.O=C(O)C(F)(F)F", "values": [{"measurement": "melting point", "value": "71 to 103.9", "unit": "°C"}]}, {"compound": "CC(=O)OC[C@@]1(N=[N+]=[N-])O[C@H](n2ccc(N)nc2=O)[C@H](OC(C)=O)[C@@H]1OC(C)=O.Cl", "values": [{"measurement": "melting point", "value": "88 to 90.9", "unit": "°C"}]}, {"compound": "CCCCC(=O)OC[C@@]1(N=[N+]=[N-])O[C@H](n2ccc(N)nc2=O)[C@H](OC(=O)CCCC)[C@@H]1OC(=O)CCCC.Cl", "note": "[Compound 46, (S)-1-((3R,4S,5R)-5-Azido-3,4-bis-pentanoyloxy-5-pentanoyloxymethyl-tetrahydro-furan-2-yl)-2-oxo-1,2-dihydro-pyrimidin-4-yl-ammonium; chloride]", "values": [{"measurement": "melting point", "value": "72.9 to 74.7", "unit": "°C"}]}, {"compound": "CCC(=O)OC[C@@]1(N=[N+]=[N-])O[C@H](n2ccc(N)nc2=O)[C@H](OC(=O)CC)[C@@H]1OC(=O)CC.CS(=O)(=O)O", "values": [{"measurement": "melting point", "value": "149 to 153", "unit": "°C"}]}, {"compound": "[N-]=[N+]=N[C@]1(CO)O[C@@H](n2ccc(NC(=O)c3ccccc3)nc2=O)[C@H](O)[C@@H]1O", "values": [{"measurement": "melting point", "value": "108.1 to 118.2", "unit": "°C"}]}, {"compound": "CC(C)C(N)C(=O)OC[C@@]1(N=[N+]=[N-])O[C@@H](n2ccc(N)nc2=O)[C@H](O)[C@@H]1O", "note": "(stereo partly drawn) [Compound 18, 1-[(2R,3S,4R,5R)-5-(4-Amino-2-oxo-2H-pyrimidin-1-yl)-2-azido-3,4-dihydroxy-tetrahydro-furan-2-ylmethoxycarbonyl]-2-methyl-propyl-ammonium; chloride]", "values": [{"measurement": "IC50", "setting": "[1]", "value": 2.4, "unit": "µM"}]}, {"compound": "[N-]=[N+]=N[C@]1(COC(=O)c2ccccc2)O[C@@H](n2ccc(N)nc2=O)[C@H](OC(=O)c2ccccc2)[C@@H]1OC(=O)c1ccccc1", "note": "[Compound 25, Benzoic acid (2R,3S,4R,5R)-3,4-dibenzoyloxy-5-(4-amino-2-oxo-2H-pyrimidin-1-yl)-2-azido-tetrahydro-furan-2-ylmethyl ester]", "values": [{"measurement": "IC50", "setting": "[1]", "value": 2.47, "unit": "µM"}]}, {"compound": "CCCCC(=O)O[C@H]1[C@@H](n2ccc(N)nc2=O)O[C@@](CO)(N=[N+]=[N-])[C@H]1OC(=O)CCCC.CS(=O)(=O)O", "values": [{"measurement": "melting point", "value": "115.3 to 120.1", "unit": "°C"}]}, {"compound": "CCCCC(=O)OC[C@@]1(N=[N+]=[N-])O[C@H](n2ccc(N)nc2=O)[C@H](O)[C@@H]1O.Cl", "values": [{"measurement": "melting point", "value": "62.1 to 87.7", "unit": "°C"}]}, {"compound": "CCCC(=O)O[C@H]1[C@@H](n2ccc(N)nc2=O)O[C@@](CO)(N=[N+]=[N-])[C@H]1OC(=O)CCC.Cl", "values": [{"measurement": "melting point", "value": "154.6 to 155.6", "unit": "°C"}]}, {"compound": "CCCCCCCCCC(=O)OC[C@@]1(N=[N+]=[N-])O[C@H](n2ccc(N)nc2=O)[C@H](O)[C@@H]1O.Cl", "values": [{"measurement": "melting point", "value": "180.6 to 181.2", "unit": "°C"}]}, {"compound": "CCCCCCCCCOC(=O)OC[C@@]1(N=[N+]=[N-])O[C@H](n2ccc(N)nc2=O)[C@H](O)[C@@H]1O.Cl", "values": [{"measurement": "melting point", "value": "174.7 to 176.1", "unit": "°C"}]}, {"compound": "CC(C)(C)C(=O)Nc1ccn([C@@H]2O[C@@](COC(=O)C(C)(C)C)(N=[N+]=[N-])[C@@H](OC(=O)C(C)(C)C)[C@H]2OC(=O)C(C)(C)C)c(=O)n1", "note": "[Compound 5, 2,2-Dimethyl-propionic acid (2R,3S,4R,5R)-2-azido-5-[4-(2,2-dimethyl-propionylamino)-2-oxo-2H-pyrimidin-1-yl]-3,4-bis-(2,2-dimethyl-propionyloxy)-tetrahydro-furan-2-ylmethyl ester]", "values": [{"measurement": "IC50", "setting": "[1]", "value": 5.33, "unit": "µM"}, {"measurement": "melting point", "value": "67.4 to 80", "unit": "°C"}]}, {"compound": "CC(=O)Nc1ccn([C@@H]2O[C@@](CO)(N=[N+]=[N-])[C@@H](O)[C@H]2O)c(=O)n1", "values": [{"measurement": "melting point", "value": "94 to 96.8", "unit": "°C"}]}, {"compound": "CCCCCC(=O)O[C@H]1[C@@H](n2ccc(N)nc2=O)O[C@@](CO)(N=[N+]=[N-])[C@H]1OC(=O)CCCCC.CS(=O)(=O)O", "values": [{"measurement": "melting point", "value": "127.3 to 128.6", "unit": "°C"}]}, {"compound": "CC(C)(C)C(=O)Nc1ccn([C@@H]2O[C@@](CO)(N=[N+]=[N-])[C@@H](O)[C@H]2O)c(=O)n1", "values": [{"measurement": "melting point", "value": "108 to 114", "unit": "°C"}]}, {"compound": "CCCCCCCCCCCC(=O)OC[C@@]1(N=[N+]=[N-])O[C@H](n2ccc(N)nc2=O)[C@H](O)[C@@H]1O.Cl", "values": [{"measurement": "melting point", "value": "154 to 155", "unit": "°C"}]}, {"compound": "Cl.[N-]=[N+]=N[C@]1(COC(=O)c2ccccc2)O[C@H](n2ccc(N)nc2=O)[C@H](O)[C@@H]1O", "values": [{"measurement": "melting point", "value": "163 to 166.5", "unit": "°C"}]}, {"compound": "Cl.[N-]=[N+]=N[C@]1(CO)O[C@H](n2ccc(N)nc2=O)[C@H](OC(=O)c2ccccc2)[C@@H]1OC(=O)c1ccccc1", "values": [{"measurement": "melting point", "value": "166.2 to 168.1", "unit": "°C"}]}, {"compound": "CC(C)(C)C(=O)OC[C@]1(N=[N+]=[N-])O[C@@H](n2ccc(N)nc2=O)[C@@H](OC(=O)C(C)(C)C)[C@H]1OC(=O)C(C)(C)C.Cl", "values": [{"measurement": "melting point", "value": "136.2 to 140", "unit": "°C"}]}, {"compound": "Cl.[N-]=[N+]=N[C@]1(COC(=O)c2ccccc2)O[C@H](n2ccc(N)nc2=O)[C@H](OC(=O)c2ccccc2)[C@@H]1OC(=O)c1ccccc1", "values": [{"measurement": "melting point", "value": "208.9 to 210.3", "unit": "°C"}]}, {"compound": "COC(=O)Nc1ccn([C@H]2O[C@@](CO)(N=[N+]=[N-])[C@@H](O)[C@H]2O)c(=O)n1", "values": [{"measurement": "melting point", "value": "141.1 to 141.8", "unit": "°C"}]}, {"compound": "CC(C)C(=O)O[C@H]1[C@@H](n2ccc(N)nc2=O)O[C@@](CO)(N=[N+]=[N-])[C@H]1OC(=O)C(C)C.Cl", "values": [{"measurement": "melting point", "value": "191.1 to 191.9", "unit": "°C"}]}, {"compound": "Cc1ccc(C(=O)OC[C@@]2(N=[N+]=[N-])O[C@H](n3ccc(N)nc3=O)[C@H](O)[C@@H]2O)cc1.Cl", "values": [{"measurement": "melting point", "value": "187 to 189", "unit": "°C"}]}, {"compound": "CCC(=O)O[C@H]1[C@@H](n2ccc(N)nc2=O)O[C@@](CO)(N=[N+]=[N-])[C@H]1OC(=O)CC.Cl", "values": [{"measurement": "melting point", "value": "194.6 to 198.2", "unit": "°C"}]}, {"compound": "CCCCCCCCCCCCC(=O)OC[C@]1(N=[N+]=[N-])OC(n2ccc(N)nc2=O)[C@H](O)[C@@H]1O.Cl", "note": "(some centres unmarked)", "values": [{"measurement": "melting point", "value": "178.6 to 179.4", "unit": "°C"}]}, {"compound": "CCCCCCCCCCOC(=O)OC[C@@]1(N=[N+]=[N-])O[C@H](n2ccc(N)nc2=O)[C@H](O)[C@@H]1O.O=C(O)C(F)(F)F", "note": "[Compound 86, (S)-1-((3R,4S,5R)-5-Azido-5-decyloxycarbonyloxymethyl-3,4-dihydroxy-tetrahydro-furan-2-yl)-2-oxo-1,2-dihydro-pyrimidin-4-yl-ammonium; trifluoro-acetate]", "values": [{"measurement": "melting point", "value": "75 to 77.7", "unit": "°C"}]}, {"compound": "CC(C)(C)OC(=O)Nc1ccn([C@@H]2O[C@@](CO)(N=[N+]=[N-])[C@@H](O)[C@H]2O)c(=O)n1", "values": [{"measurement": "melting point", "value": "80 to 83.5", "unit": "°C"}]}, {"compound": "CC(C)CC(=O)OC[C@@]1(N=[N+]=[N-])O[C@H](n2ccc(N)nc2=O)[C@H](OC(=O)CC(C)C)[C@@H]1OC(=O)CC(C)C.Cl", "values": [{"measurement": "melting point", "value": "142 to 142.8", "unit": "°C"}]}, {"compound": "CCCCCCCCNC(=O)OC[C@@]1(N=[N+]=[N-])O[C@H](n2ccc(N)nc2=O)[C@H](O)[C@@H]1O.Cl", "values": [{"measurement": "melting point", "value": "164.9 to 168.5", "unit": "°C"}]}]}
